{
  "source": "ChEMBL document CHEMBL4043210",
  "about": "“Synthesis of amide isosteres of schweinfurthin-based stilbenes” (2017)",
  "assay": "Growth inhibition of human NCI60 cells by sulforhodamine B assay",
  "format": "functional",
  "data": [
    {"smiles": "COc1cc(/C=C/c2cc(O)c(C/C=C(\\C)CCC=C(C)C)c(O)c2)cc2c1O[C@]1(C)CC[C@@H](O)C(C)(C)[C@H]1C2", "note": "[3-DEOXYSCHWEINFURTHIN B]", "values": [
      {"measurement": "GI50", "value": 870, "unit": "nM"}
    ]},
    {"smiles": "COc1cc(NC(=O)c2cc(OC)c3ccn(C)c3c2)cc2c1O[C@]1(C)CC[C@@H](O)C(C)(C)[C@H]1C2", "values": [
      {"measurement": "GI50", "value": 6600, "unit": "nM"}
    ]},
    {"smiles": "COc1cc(NC(=O)c2cc(O)c(C/C=C(\\C)CCC=C(C)C)c(O)c2)cc2c1O[C@]1(C)CC[C@@H](O)C(C)(C)[C@H]1C2", "values": [
      {"measurement": "GI50", "value": 1100, "unit": "nM"}
    ]},
    {"smiles": "CC(C)=CCC/C(C)=C/Cc1c(O)cc(/C=C/c2cc(O)c3c(c2)C[C@@H]2C(C)(C)[C@H](O)[C@H](O)C[C@@]2(C)O3)cc1O", "note": "[SCHWEINFURTHIN A]", "values": [
      {"measurement": "GI50", "value": 360, "unit": "nM"}
    ]},
    {"smiles": "COc1cc(C(=O)Nc2cc(OC)c3ccn(C)c3c2)cc2c1O[C@]1(C)CC[C@@H](O)C(C)(C)[C@H]1C2", "values": [
      {"measurement": "GI50", "value": 660, "unit": "nM"}
    ]},
    {"smiles": "COc1cc(C(=O)Nc2cc(O)c(C/C=C(\\C)CCC=C(C)C)c(O)c2)cc2c1O[C@]1(C)CC[C@@H](O)C(C)(C)[C@H]1C2", "values": [
      {"measurement": "GI50", "value": 210, "unit": "nM"}
    ]}
  ]
}
